Data reported in patent US8916565B2, “Pyrrolopyrazine-spirocyclic piperidine amides as modulators of ion channels” (priority 2011, dated 2014).

The compounds below were run against human NaV subtype, like NaV 1.7 (Homo sapiens, UniProt Q15858) (assay: E-VIPR optical membrane potential assay with electrical stimulation). Conditions: active against one or more sodium channels; Table 3 does not name the assay or NaV subtype; read-out: Binned Activity Data (IC50).
Chain of human NaV subtype, like NaV 1.7 (Q15858 whole entry): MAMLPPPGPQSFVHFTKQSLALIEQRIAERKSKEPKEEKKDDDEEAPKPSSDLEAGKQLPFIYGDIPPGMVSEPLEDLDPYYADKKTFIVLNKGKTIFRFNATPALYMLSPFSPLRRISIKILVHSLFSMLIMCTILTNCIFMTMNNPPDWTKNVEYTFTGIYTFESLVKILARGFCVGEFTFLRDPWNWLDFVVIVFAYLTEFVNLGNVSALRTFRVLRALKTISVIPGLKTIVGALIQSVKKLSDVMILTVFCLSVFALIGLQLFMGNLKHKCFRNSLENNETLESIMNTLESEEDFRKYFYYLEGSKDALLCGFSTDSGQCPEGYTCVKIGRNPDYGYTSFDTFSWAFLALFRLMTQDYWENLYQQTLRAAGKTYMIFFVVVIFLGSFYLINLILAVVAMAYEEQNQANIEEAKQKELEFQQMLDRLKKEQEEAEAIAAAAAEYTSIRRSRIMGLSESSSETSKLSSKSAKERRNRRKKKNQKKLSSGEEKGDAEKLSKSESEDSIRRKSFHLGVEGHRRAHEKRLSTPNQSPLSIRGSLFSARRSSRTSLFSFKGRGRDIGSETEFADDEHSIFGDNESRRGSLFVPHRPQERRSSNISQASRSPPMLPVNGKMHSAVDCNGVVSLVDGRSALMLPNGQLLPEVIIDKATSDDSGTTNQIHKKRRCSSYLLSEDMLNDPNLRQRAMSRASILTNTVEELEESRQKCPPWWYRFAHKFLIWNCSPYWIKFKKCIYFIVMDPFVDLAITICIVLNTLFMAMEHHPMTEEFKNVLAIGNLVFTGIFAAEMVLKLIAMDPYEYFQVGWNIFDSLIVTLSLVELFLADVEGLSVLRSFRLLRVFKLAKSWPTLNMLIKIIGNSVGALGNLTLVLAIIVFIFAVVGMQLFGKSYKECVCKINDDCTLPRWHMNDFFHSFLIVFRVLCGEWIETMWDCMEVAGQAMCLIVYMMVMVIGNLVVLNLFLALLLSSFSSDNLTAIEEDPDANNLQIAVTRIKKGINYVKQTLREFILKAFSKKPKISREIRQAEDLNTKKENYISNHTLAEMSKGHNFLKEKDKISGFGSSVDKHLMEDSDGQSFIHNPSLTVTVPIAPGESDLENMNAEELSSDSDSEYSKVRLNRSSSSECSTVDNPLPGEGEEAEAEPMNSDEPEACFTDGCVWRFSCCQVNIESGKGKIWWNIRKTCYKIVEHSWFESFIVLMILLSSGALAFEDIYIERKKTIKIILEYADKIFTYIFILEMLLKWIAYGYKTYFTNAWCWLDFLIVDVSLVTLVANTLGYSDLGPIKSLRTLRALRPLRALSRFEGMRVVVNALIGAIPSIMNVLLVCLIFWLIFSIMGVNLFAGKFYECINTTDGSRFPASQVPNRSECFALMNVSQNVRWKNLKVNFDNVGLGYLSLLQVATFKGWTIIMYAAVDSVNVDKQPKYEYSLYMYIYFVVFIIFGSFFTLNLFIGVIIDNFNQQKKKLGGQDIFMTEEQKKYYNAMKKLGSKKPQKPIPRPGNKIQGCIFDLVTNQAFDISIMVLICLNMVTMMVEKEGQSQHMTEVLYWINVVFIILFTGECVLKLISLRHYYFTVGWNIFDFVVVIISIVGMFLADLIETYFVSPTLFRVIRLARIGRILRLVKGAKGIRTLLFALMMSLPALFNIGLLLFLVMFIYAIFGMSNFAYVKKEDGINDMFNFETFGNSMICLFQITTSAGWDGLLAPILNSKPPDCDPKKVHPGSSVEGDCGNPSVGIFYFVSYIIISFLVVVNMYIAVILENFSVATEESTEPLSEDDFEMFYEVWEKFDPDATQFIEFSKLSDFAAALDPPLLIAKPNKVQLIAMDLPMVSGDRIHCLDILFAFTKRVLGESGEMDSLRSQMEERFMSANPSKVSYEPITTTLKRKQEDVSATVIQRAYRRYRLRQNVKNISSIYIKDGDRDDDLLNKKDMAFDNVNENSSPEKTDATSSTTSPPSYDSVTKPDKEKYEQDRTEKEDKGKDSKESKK
Type: cell-based
In the case of `COc1ccc(C(=O)N2CCC3(CC2)c2ccc(C(=O)C(F)(F)F)n2C[C@H](C)N3C)cc1Cl` [Compound 608], the IC50 is reported as ≤ 2 µM.
`CC1(C)Cn2c(C(=O)C(F)(F)F)ccc2C2(CCN(C(=O)c3ccc(O)c(Cl)c3)CC2)N1` [Compound 491] was tested, and the IC50 was ≤ 2 µM.
With `CN1CCn2c(C(=O)C(C)(C)C)ccc2C12CCN(C(=O)c1ccc(O)c(C(F)(F)F)c1)CC2` [Compound 97] the IC50 was ≤ 2 µM.
`CCc1ccc(C(=O)N2CCC3(CC2)c2ccc(C(F)(F)F)n2CCN3CCOC)cc1OC` [Compound 80] was tested, and the IC50 was ≤ 2 µM.
With `CC(C)Oc1ccc(C(=O)N2CCC3(CC2)c2ccc(C(=O)C(F)(F)F)n2CCN3C)cc1C#N` [Compound 51] the IC50 was ≤ 2 µM.
In the case of `CN1CCn2c(C(F)(F)F)cc(F)c2C12CCN(C(=O)c1ccc(C(C)(C)O)c(F)c1)CC2` [Compound 616], the IC50 is reported as ≤ 2 µM.
`Cc1ccc(C(=O)N2CCC3(CC2)c2ccc(C(F)(F)F)n2CCN3C)cc1` [Compound 319] was tested, and the IC50 was > 5 µM.
In the case of `Cc1cc(C(=O)N2CCC3(CC2)c2ccc(C(F)(F)F)n2CCN3C)ccc1OCC(C)(C)O` [Compound 263], the IC50 is reported as ≤ 2 µM.
`CC(C)Oc1ccc(C(=O)N2CCC3(CC2)NCC(C)n2c(C(=O)C(F)(F)F)ccc23)cc1Cl` (centres unmarked) [Compound 324] was tested, and the IC50 was ≤ 2 µM.
With `CN1CCn2c(C(F)(F)F)ccc2C12CCN(C(=O)c1cccnc1N1CCC(O)C1)CC2` (centres unmarked) [Compound 116] the IC50 was > 5 µM.
For `CCCCOc1cc(C(=O)N2CCC3(CC2)c2ccc(C(=O)C(F)(F)F)n2CCN3C)ccc1OC` [Compound 115], the IC50 was ≤ 2 µM.
`Cc1cc(C(=O)N2CCC3(CC2)c2ccc(C(F)(F)C(F)(F)F)n2CCN3C)ccc1OC(C)C` [Compound 211] was tested, and the IC50 was ≤ 2 µM.
`COc1cc(C(=O)N2CCC3(CC2)c2ccc(C(F)(F)F)n2CCN3C)ccc1OCCOC(F)(F)F` [Compound 168] was tested, and the IC50 was ≤ 2 µM.
With `COc1ccc(C(=O)N2CCC3(CC2)c2cc(C(=O)C(F)(F)F)cn2C(C)(C)CN3C)cc1C` [Compound 239] the IC50 was > 5 µM.
`Cc1cc(C(=O)N2CCC3(CC2)c2ccc(C(=O)C(F)(F)F)n2CCN3C)ccc1F` [Compound 376] was tested, and the IC50 was 2 to 5 µM.
`CN1CCn2c(C(F)(F)F)ccc2C12CCN(C(=O)c1ccnc(N3CCCCC3)c1)CC2` [Compound 581] was tested, and the IC50 was 2 to 5 µM.
In the case of `Cc1cc(C(=O)N2CCC3(CC2)NCCn2c(C(F)(F)F)ccc23)ccc1S(=O)(=O)N(C)C` [Compound 265], the IC50 is reported as ≤ 2 µM.
With `COc1ccc(C(=O)N2CCC3(CC2)c2ccc(C(=O)c4ccccc4)n2CCN3C)cc1Cl` [Compound 74] the IC50 was 2 to 5 µM.
`CCCCc1ccc(C(=O)N2CCC3(CC2)c2ccc(Cl)n2CCN3C)cc1` [Compound 275] showed an IC50 of 2 to 5 µM.
With `Cc1cc(C(=O)N2CCC3(CC2)c2c(F)cc(C(F)(F)F)n2CCN3C)ccc1S(=O)(=O)C(C)C` [Compound 215] the IC50 was ≤ 2 µM.
For `COc1ccc(C(=O)N2CCC3(CC2)c2c(F)cc(C(F)(F)F)n2CCN3C)cc1C(F)(F)F` [Compound 255], the IC50 was ≤ 2 µM.
For `CC(C)Oc1ccc(C(=O)N2CCC3(CC2)c2c(F)cc(C(F)(F)F)n2CCN3C)cc1C#N` [Compound 134], the IC50 was ≤ 2 µM.
With `Cc1cc(C(=O)N2CCC3(CC2)c2ccc(C(F)(F)F)n2CCN3C)ccc1F` [Compound 177] the IC50 was > 5 µM.
In the case of `Cc1cc(C(=O)N2CCC3(CC2)NC(C)(C)Cn2c(C(=O)C(F)(F)F)ccc23)ccc1OC(C)C` [Compound 131], the IC50 is reported as ≤ 2 µM.
With `CC(C)Oc1ccc(C(=O)N2CCC3(CC2)c2c(F)cc(C(F)(F)F)n2CCN3C)cc1F` [Compound 436] the IC50 was ≤ 2 µM.
In the case of `C[C@H]1Cn2c(C(=O)C(F)(F)F)ccc2C2(CCN(C(=O)c3ccc(O)c(Cl)c3)CC2)N1C` [Compound 700], the IC50 is reported as ≤ 2 µM.
Compound `CN1CCn2c(Cl)ccc2C12CCN(C(=O)c1ccc(S(=O)(=O)NC3CC3)cc1)CC2` [Compound 352] has an IC50 of 2 to 5 µM.
For `CN1CCn2c(C(=O)C3(C)CC3)ccc2C12CCN(C(=O)c1ccc(S(=O)(=O)NC3CC3)cc1)CC2` [Compound 53], the IC50 was ≤ 2 µM.
For `CC(C)Oc1ccc(C(=O)N2CCC3(CC2)c2ccc(C(=O)C(F)(F)F)n2C[C@H](C)N3C)c(F)c1` [Compound 695], the IC50 was ≤ 2 µM.
For `Cc1cc(C(=O)N2CCC3(CC2)c2ccc(C(=O)C(F)(F)F)n2CCN3C)ccc1OCCCO` [Compound 148], the IC50 was ≤ 2 µM.
With `COc1cc(C(=O)N2CCC3(CC2)c2ccc(C(=O)C(C)(C)C)n2CCN3C)ccc1OC(C)(C)C` [Compound 85] the IC50 was ≤ 2 µM.
With `Cc1cc(C(=O)N2CCC3(CC2)c2ccc(C(F)(F)C(F)(F)F)n2CCN3C)ccc1OCCCO` [Compound 96] the IC50 was ≤ 2 µM.
In the case of `CCCCOc1ccc(C(=O)N2CCC3(CC2)c2ccc(Cl)n2CCN3C)cc1` [Compound 386], the IC50 is reported as ≤ 2 µM.
With `CN1CCn2c(Cl)ccc2C12CCN(C(=O)c1ccc(C(C)(C)C)cc1)CC2` [Compound 625] the IC50 was > 5 µM.
In the case of `Cc1cc(C(=O)N2CCC3(CC2)c2ccc(C(=O)C4CC4)n2CCN3C)ccc1O` [Compound 476], the IC50 is reported as ≤ 2 µM.
For `Cc1cc(C(=O)N2CCC3(CC2)c2ccc(CC(F)(F)F)n2CCN3C)ccc1S(=O)(=O)C(C)C` [Compound 534], the IC50 was > 5 µM.
`CC(C)Oc1ccc(C(=O)N2CCC3(CC2)c2ccc(C(=O)C(C)(C)C)n2CCN3C)cc1Cl` [Compound 243] was tested, and the IC50 was ≤ 2 µM.
In the case of `CNS(=O)(=O)c1ccc(C(=O)N2CCC3(CC2)c2ccc(C(=O)C(C)(C)C)n2CCN3C)cc1C` [Compound 561], the IC50 is reported as ≤ 2 µM.
For `Cc1cc(C(=O)N2CCC3(CC2)c2c(Cl)cc(C(F)(F)F)n2CCN3C)ncc1OC(C)C` [Compound 657], the IC50 was ≤ 2 µM.
In the case of `COc1cc(C(=O)N2CCC3(CC2)c2ccc(C(F)(F)F)n2C[C@@H](C)N3C)ccc1OC(C)C` [Compound 677], the IC50 is reported as > 5 µM.
`CCNc1ccnc2c(C(=O)N3CCC4(CC3)c3ccc(C(F)(F)F)n3CCN4C)cnn12` [Compound 481] was tested, and the IC50 was ≤ 2 µM.
`CC(C)Oc1ccc(C(=O)N2CCC3(CC2)c2ccc(C(F)(F)C(F)(F)F)n2CCN3C)cc1Cl` [Compound 664] was tested, and the IC50 was ≤ 2 µM.
With `CC(C)Oc1ccc(C(=O)N2CCC3(CC2)c2ccc(C(=O)C(F)(F)F)n2C(C)CN3C)cc1Cl` (centres unmarked) [Compound 325] the IC50 was ≤ 2 µM.
In the case of `CCC(CC)(CC)c1ccc(C(=O)N2CCC3(CC2)c2ccc(C(C)=O)n2CCN3C)cc1` [Compound 511], the IC50 is reported as > 5 µM.
For `CN1CCn2c(C(F)(F)F)cc(F)c2C12CCN(C(=O)c1ccc(C3(O)CCC3)cc1)CC2` [Compound 242], the IC50 was ≤ 2 µM.
`CN1CCn2c(C(=O)C(F)(F)F)ccc2C12CCN(C(=O)c1ccc(O)c(C(F)(F)F)c1)CC2` [Compound 733] was tested, and the IC50 was ≤ 2 µM.
`COc1c(C)cccc1C(=O)N1CCC2(CC1)c1ccc(C(=O)C(F)(F)F)n1C[C@H](C)N2C` [Compound 675] was tested, and the IC50 was ≤ 2 µM.
With `CCNS(=O)(=O)c1ccc(C(=O)N2CCC3(CC2)c2ccc(C(C)=O)n2CCN3C)cc1` [Compound 192] the IC50 was > 5 µM.
For `CC(=O)c1ccc2n1CCN(C)C21CCN(C(=O)c2cccc3cccnc23)CC1` [Compound 472], the IC50 was > 5 µM.
For `COc1ccc(C(=O)N2CCC3(CC2)NC(C)(C)Cn2c(C(C)=O)ccc23)cc1C(F)(F)F` [Compound 633], the IC50 was > 5 µM.
Work on `COCCOc1ccc(C(=O)N2CCC3(CC2)c2ccc(C(=O)C(F)(F)F)n2CCN3C)cc1OC` [Compound 640] yielded an IC50 of 2 to 5 µM.
In the case of `COc1cc(C(=O)N2CCC3(CC2)c2ccc(C(F)(F)F)n2CCN3C2CC2)ccc1OC(C)C` [Compound 690], the IC50 is reported as ≤ 2 µM.
In the case of `CC[C@H](C)Oc1ccc(C(=O)N2CCC3(CC2)c2ccc(C(F)(F)C(F)(F)F)n2CCN3C)cc1OC` [Compound 385], the IC50 is reported as ≤ 2 µM.
In the case of `CN1CCn2c(C(=O)C(F)(F)F)ccc2C12CCN(C(=O)c1ccc(C(CO)OCC(F)(F)F)cc1)CC2` (centres unmarked) [Compound 136], the IC50 is reported as ≤ 2 µM.
Work on `CC(=O)c1ccc2n1CCN(C)C21CCN(C(=O)c2ccc(Oc3ccccc3)cc2)CC1` [Compound 78] yielded an IC50 of 2 to 5 µM.
With `Cc1cc(C(=O)N2CCC3(CC2)NC(C)Cn2c(C(F)(F)F)ccc23)ccc1OC(C)C` (centres unmarked) [Compound 222] the IC50 was ≤ 2 µM.
For `CN1CCn2c(C(F)(F)F)cc(Cl)c2C12CCN(C(=O)c1ccc(C3(O)CCC3)cc1)CC2` [Compound 228], the IC50 was ≤ 2 µM.
In the case of `CC(C)Oc1ccc(C(=O)N2CCC3(CC2)c2ccc(Cl)n2CCN3C)cc1CO` [Compound 678], the IC50 is reported as 2 to 5 µM.
`COc1ccc(C(=O)N2CCC3(CC2)c2ccc(C(C)=O)n2CCN3C)cc1-c1ccccc1` [Compound 205] was tested, and the IC50 was > 5 µM.
`Cc1cc(C(=O)N2CCC3(CC2)c2ccc(C(F)(F)F)n2CCN3CC(N)=O)ccc1OC(C)C` [Compound 571] gave an IC50 of 2 to 5 µM.
For `Cc1nc(C(=O)N2CCC3(CC2)c2c(Cl)cc(C(F)(F)F)n2CCN3C)ccc1OC(C)C` [Compound 261], the IC50 was ≤ 2 µM.
For `Cc1cc(C(=O)N2CCC3(CC2)c2ccc(C(F)(F)F)n2CCN3C)ccc1OCCCO` [Compound 583], the IC50 was ≤ 2 µM.
In the case of `Cc1cccc(C(=O)N2CCC3(CC2)c2ccc(C(F)(F)F)n2CCN3C)n1` [Compound 63], the IC50 is reported as > 5 µM.
In the case of `CN1CCn2c(C(F)(F)F)cc(Cl)c2C12CCN(C(=O)c1ccc(COCCC(F)(F)F)cc1)CC2` [Compound 102], the IC50 is reported as ≤ 2 µM.
`CN1CCn2c(C(F)(F)F)ccc2C12CCN(C(=O)c1ccc(S(=O)(=O)NC3CC3)cc1)CC2` [Compound 584] was tested, and the IC50 was ≤ 2 µM.
For `CC(=O)c1ccc2n1CCN(C)C21CCN(C(=O)c2ccc(C3(O)CCCC3)cc2)CC1` [Compound 309], the IC50 was > 5 µM.
With `Cc1cc(C(=O)N2CCC3(CC2)c2ccc(C(=O)C(F)(F)F)n2CCN3C)ccc1C(C)(C)O` [Compound 266] the IC50 was ≤ 2 µM.
With `COc1c(F)cccc1C(=O)N1CCC2(CC1)c1ccc(C(=O)C(F)(F)F)n1C[C@H](C)N2C` [Compound 264] the IC50 was ≤ 2 µM.
With `CCc1ccc(C(=O)N2CCC3(CC2)c2ccc(C(F)(F)F)n2CCN3C)nc1` [Compound 345] the IC50 was > 5 µM.
For `CC(C)Oc1ccc(C(=O)N2CCC3(CC2)c2ccc(C(=O)C(F)(F)F)n2CCN3C)cc1` [Compound 233], the IC50 was ≤ 2 µM.
In the case of `COc1cc(C(=O)N2CCC3(CC2)c2ccc(C(C)=O)n2CCN3C)ccc1OC(C)C` [Compound 535], the IC50 is reported as > 5 µM.
`CN1CCn2c(C(F)(F)F)ccc2C12CCN(C(=O)c1ccccc1Oc1ccccc1)CC2` [Compound 27] was tested, and the IC50 was ≤ 2 µM.
With `Cc1cc(C(=O)N2CCC3(CC2)c2cccn2CCN3C)ccc1OC(C)C` [Compound 430] the IC50 was > 5 µM.
With `CC(C)Oc1ccc(C(=O)N2CCC3(CC2)c2ccc(C(F)(F)F)n2CCN3C)c(F)c1` [Compound 546] the IC50 was ≤ 2 µM.
